In US20230373972A1, “PIPERAZINE DERIVATIVE, PREPARATION METHOD THEREFOR AND USE THEREOF” (Zhejiang Hisun Pharmaceutical Co., Ltd., priority 2020, published 2023):

Tests used:
[1] = biological target: T1, Native human Factor XIa protease (Homo sapiens, UniProt P03951); test: Inhibition of activity of Factor XIa protease (chromogenic substrate S-2366); type: biochemical; settings: S-2366 1 mM, 37° C. 10 minutes, absorption at 405 nm
T1 construct: The Native human Factor XIa protease was purchased from Abcam; purchased Abcam ab62411
T1 sequence (P03951 388-625 limits assumed): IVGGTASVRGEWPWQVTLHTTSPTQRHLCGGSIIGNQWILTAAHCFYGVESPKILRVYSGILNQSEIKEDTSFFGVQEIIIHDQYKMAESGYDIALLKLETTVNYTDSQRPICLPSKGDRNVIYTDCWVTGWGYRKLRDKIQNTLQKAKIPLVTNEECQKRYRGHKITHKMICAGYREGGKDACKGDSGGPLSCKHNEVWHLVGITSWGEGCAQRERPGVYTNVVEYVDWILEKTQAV
T1 sequence (P03951 19-387 partner limits assumed): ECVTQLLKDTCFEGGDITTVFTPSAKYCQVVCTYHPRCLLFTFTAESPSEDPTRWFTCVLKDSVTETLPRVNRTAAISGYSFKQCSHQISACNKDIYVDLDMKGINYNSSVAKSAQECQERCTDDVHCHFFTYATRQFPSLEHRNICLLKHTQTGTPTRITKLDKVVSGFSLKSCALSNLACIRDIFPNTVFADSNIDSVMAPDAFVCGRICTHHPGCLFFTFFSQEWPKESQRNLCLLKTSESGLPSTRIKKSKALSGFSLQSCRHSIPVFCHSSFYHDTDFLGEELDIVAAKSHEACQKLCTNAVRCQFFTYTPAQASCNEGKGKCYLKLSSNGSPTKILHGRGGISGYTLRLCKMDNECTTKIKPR
Description: The following method was used to determine an inhibition degree of the compound of the present invention on an activity of Native human Factor XIa protease in vitro. In the method, a Factor XIa chromogenic substrate was used to test the inhibition degree on the activity of the Factor XIa protease. The Native human Factor XIa protease was purchased from Abcam (article number ab62411), and S-2366 was purchased from Chromogenix (article number 82109039). An experimental process was briefly described as follows: a test compound was dissolved in DMSO to prepare a 10 mM storage solution first, then the compound was diluted with a Factor XIa reaction buffer (100 mM Tris-HCl, 200 mM NaCl, 0.02% Tween 20, pH 7.4) by a quadruple gradient, and a final concentration of the test compound in a reaction system ranged from 10,000 nM to […]. The reaction was carried out in a 384-well microplate. 2 μL of the test compounds at different concentrations diluted with the reaction buffer were added to wells first, and 2 μL of 1% DMSO (a final concentration of DMSO in the reaction system was 0.1%) was used to replace blank and control wells. Subsequently, 8 μL of enzyme working solution (a final concentration of Factor XIa was […]) was added to each well, and 8 μL of Factor XIa reaction buffer was used to replace the blank well, centrifuged for 30 seconds, and incubated on ice for 5 minutes. Finally, 10 μL of substrate working solution (a final concentration of S-2366 was 1 mM) was added to each well, and centrifuged for 30 seconds, and the reaction was started. The solution was incubated at 37° C. for 10 minutes to determine a light absorption value at 405 nm. By comparing with a light absorption value of the control group (0.1% DMSO), a percentage inhibition rate of the compound at each concentration was calculated, and nonlinear regression analysis was carried out on value-inhibition rate with the concentration of the compound by GraphPad Prism 5 software, so as to obtain an IC50 value of the compound, as shown in Table 1.

human plasma = test: In-vitro anticoagulation on human plasma (APTT kit, coagulation time); settings: concentration of the compound when the coagulation time (APTT) was prolonged twice
Experimental: The following method was used to determine the in-vitro anticoagulation of the compound of the present invention in the human plasma. In the method, an APTT kit of the MediRox company was used to test. The APTT kit was purchased from MediRox (article number MRX930), and the human plasma was prepared internally.
The preparation of the human plasma was briefly described as follows: human plasma was collected in a blood collection tube containing sodium citrate, and centrifuged at 3,000 rpm for 10 minutes at room temperature, and plasma was collected, and packaged separately and stored at −80° C.
An APTT test process was briefly described as follows: a test compound was dissolved in DMSO to prepare a 10 mM storage solution first, then the test compound was diluted with DMSO by a triple gradient, and a final concentration of the test compound in a reaction system ranged from 217 μM to 0.03 μM. 4 μL, of test compounds at different concentrations diluted with DMSO were added to a centrifuge tube containing 180 μL of plasma, and 4 μL of DMSO was added to a blank group, shaken and mixed evenly, and incubated at 37° C. for 5 minutes. Subsequently, an APTT reagent was placed in a reagent holder according to instrument requirements, the incubated plasma sample was placed in a detection position of a coagulation analyzer, and a coagulation time was determined and recorded (s). With a final concentration of the compound as an abscissa and Ratio (Ratio=TiT0, wherein T0 was a coagulation time of a blank control, and Ti was a coagulation time of a compound to be tested) as an ordinate, a coagulation dose-effect curve was drawn by Graph Pad Prisms, and a concentration of the compound when the coagulation time was prolonged twice was calculated, which was namely a CT2 value, as shown in Table 2.

CNC(=O)c1ccc(NC(=O)C(Cc2ccccc2)N2CC(=O)N(c3cc(Cl)ccc3-n3cnnn3)CC2=O)cc1F (stereo not shown) [Example 20, 4-(2-(4-(5-Chloro-2-(1H-tetrazol-1-yl)phenyl)-2,5-dioxopiperazin-1-yl)-3-phenylpropanamido)-2-fluoro-N-methylbenzamide]
IC50 [1]: 30.5 nM | CT2 (human plasma): 8.6 µM

O=C(Nc1cccc(F)c1)C(Cc1ccccc1)N1CC(=O)N(c2cc(Cl)ccc2-n2cnnn2)CC1=O (stereo not shown) [Example 15, 2-(4-(5-Chloro-2-(1H-tetrazol-1-yl)phenyl)-2,5-dioxopiperazine-1-yl)-N-(3-fluorophenyl)-3-phenylpropanamide]
IC50 [1]: 25.1 nM | CT2 (human plasma): 9.9 µM

COC(=O)Nc1ccc(NC(=O)C(Cc2ccccc2)N2CC(=O)N(c3cc(Cl)ccc3-n3cnnn3)CC2=O)cc1 (stereo not shown) [Example 2, Methyl (4-(2-(4-(5-chloro-2-(1H-tetrazol-1-yl)phenyl)-2,5-dioxopiperazin-1-yl)-3-phenylpropanamido)phenyl)carbamate]
IC50 [1]: 44.9 nM | CT2 (human plasma): 12.6 µM

[2H]C([2H])([2H])n1cc2cc(NC(=O)C(Cc3ccccc3)N3CC(=O)N(c4cc(Cl)ccc4-n4cc(Cl)nn4)CC3=O)ccc2n1 (stereo not shown) [Example 109, 2-(4-(5-Chloro-2-(4-chloro-1H-1,2,3-triazol-1-yl)phenyl)-2,5-dioxopiperazin-1-yl)-N-(2-(methyl-d3)-2H-indazol-5-yl)-3-phenylpropanamide]
IC50 [1]: 12.7 nM | CT2 (human plasma): 12.6 µM

CNC(=O)c1ccc(NC(=O)C(Cc2ccccc2)N2CC(=O)N(c3cc(Cl)ccc3-n3cnnn3)CC2=O)cc1 (stereo not shown) [Example 6, 4-(2-(4-(5-Chloro-2-(1H-tetrazol-1-yl)phenyl)-2,5-dioxopiperazin-1-yl)-3-phenylpropanamido)-N-methylbenzamide]
IC50 [1]: 34.6 nM | CT2 (human plasma): 4.9 µM

O=C(Nc1ccc(N2CCOC2=O)cc1)C(Cc1ccccc1)N1CC(=O)N(c2cc(Cl)ccc2-n2cnnn2)CC1=O (stereo not shown) [Example 14, 2-(4-(5-Chloro-2-(1H-tetrazol-1-yl)phenyl)-2,5-dioxopiperazin-1-yl)-N-(4-(2-oxooxazolidin-3-yl)phenyl)-3-phenylpropanamide]
IC50 [1]: 44 nM | CT2 (human plasma): 14.3 µM

COC(=O)c1ccc(NC(=O)C(Cc2ccccc2)N2CC(=O)N(c3cc(Cl)ccc3-n3cnnn3)CC2=O)cc1 (stereo not shown) [Example 5, Methyl 4-(2-(4-(5-Chloro-2-(1H-tetrazol-1-yl)phenyl)-2,5-dioxopiperazin-1-yl)-3-phenylpropanamido)benzoate]
IC50 [1]: 29.9 nM | CT2 (human plasma): 17.8 µM

Cn1cc2cc(NC(=O)C(Cc3ccc(F)cc3)N3CC(=O)N(c4cc(Cl)ccc4-n4cnnn4)CC3=O)ccc2n1 (stereo not shown) [Example 41, 2-(4-(5-Chloro-2-(1H-tetrazol-1-yl)phenyl)-2,5-dioxopiperazin-1-yl)-3-(4-fluorophenyl)-N-(2-methyl-2H-indazol-5-yl)propanamide]
IC50 [1]: 38.5 nM | CT2 (human plasma): 8.5 µM

O=C(O)c1ccc(NC(=O)C(Cc2ccccc2)N2CC(=O)N(c3cc(Cl)ccc3-n3cc(Cl)nn3)CC2=O)cc1 (stereo not shown) [Example 26, 4-(2-(4-(5-Chloro-2-(4-chloro-1H-1,2,3-triazol-1-yl)phenyl)-2,5-dioxopiperazin-1-yl)-3-phenylpropanamido)benzoic Acid]
IC50 [1]: 16.9 nM | CT2 (human plasma): 7.0 µM

CN1Cc2cc(NC(=O)C(Cc3ccccc3)N3CC(=O)N(c4cc(Cl)ccc4-n4cnnn4)CC3=O)ccc2C1=O (stereo not shown) [Example 12, 2-(4-(5-Chloro-2-(1H-tetrazol-1-yl)phenyl)-2,5-dioxopiperazin-1-yl)-N-(2-methyl-1-oxoisoindolin-5-yl)-3-phenylpropanamide]
IC50 [1]: 22.8 nM | CT2 (human plasma): 4.4 µM

O=C(Nc1ccc2c(cnn2C(F)F)c1)C(Cc1ccccc1)N1CC(=O)N(c2cc(Cl)ccc2-n2cnnn2)CC1=O (stereo not shown) [Example 33, 2-(4-(5-chloro-2-(1H-tetrazol-1-yl)phenyl)-2,5-dioxopiperazin-1-yl)-N-(1-(difluoromethyl)-1H-indazol-5-yl)-3-phenylpropanamide]
IC50 [1]: 26.1 nM | CT2 (human plasma): 18.5 µM

O=C(Nc1ccn2nccc2c1)C(Cc1ccccc1)N1CC(=O)N(c2cc(Cl)ccc2-n2cnnn2)CC1=O (stereo not shown) [Example 37, 2-(4-(5-chloro-2-(1H-tetrazol-1-yl)phenyl)-2,5-dioxopiperazin-1-yl)-3-phenyl-N-(pyrazolo[1.5-a]pyridin-5-yl)propanamide]
IC50 [1]: 17.6 nM | CT2 (human plasma): 7.5 µM

O=C(O)c1ccc(NC(=O)C(Cc2ccccc2)N2CC(=O)N(c3cc(Cl)ccc3-n3ccnn3)CC2=O)cc1 (stereo not shown) [Example 11, 4-(2-(4-(5-Chloro-2-(1H-1,2,3-triazole-1-yl)phenyl)-2,5-dioxopiperazin-1-yl)-3-phenylpropanamido)benzoic Acid]
IC50 [1]: 24.9 nM | CT2 (human plasma): 8.1 µM

Cn1cc2ccc(NC(=O)C(Cc3ccccc3)N3CC(=O)N(c4cc(Cl)ccc4-n4cnnn4)CC3=O)cc2n1 (stereo not shown) [Example 31, 2-(4-(5-Chloro-2-(1H-tetrazol-1-yl)phenyl)-2,5-dioxopiperazin-1-yl)-N-(2-methyl-2H-indazol-6-yl)-3-phenylpropanamide]
IC50 [1]: 38.9 nM | CT2 (human plasma): 13.7 µM

O=C(Nc1ccc2nn(C(F)F)cc2c1)[C@H](Cc1ccccc1)N1CC(=O)N(c2cc(Cl)ccc2-n2cc(Cl)nn2)CC1=O [Example 97, (S)-2-(4-(5-chloro-2-(4-chloro-1H-1,2,3-triazol-1-yl)phenyl)-2,5-dioxopiperazin-1-yl)-N-(2-(difluoromethyl)-2H-indazol-5-yl)-3-phenylpropanamide]
IC50 [1]: 21.2 nM | CT2 (human plasma): 12.5 µM

NC(=O)c1ccc(NC(=O)C(Cc2ccccc2)N2CC(=O)N(c3cc(Cl)ccc3-n3cnnn3)CC2=O)cc1 (stereo not shown) [Example 3, 4-(2-(4-(5-Chloro-2-(1H-tetrazol-1-yl)phenyl)-2,5-dioxopiperazin-1-yl)-3-phenylpropanamido)benzamide]
IC50 [1]: 36.7 nM | CT2 (human plasma): 6.6 µM

O=C(Nc1ccc2nn(C(F)F)cc2c1)C(Cc1ccccc1)N1CC(=O)N(c2cc(Cl)ccc2-n2cnnn2)CC1=O (stereo not shown) [Example 34, 2-(4-(5-Chloro-2-(1H-tetrazol-1-yl)phenyl)-2,5-dioxopiperazin-1-yl)-N-(2-(difluoromethyl)-2H-indazol-5-yl)-3-phenylpropanamide]
IC50 [1]: 10.4 nM | CT2 (human plasma): 5.9 µM

Cn1cc2cc(NC(=O)C(Cc3ccccc3)N3CC(=O)N(c4cc(Cl)ccc4-n4cnnn4)CC3=O)ccc2n1 (stereo not shown) [Example 19, 2-(4-(5-Chloro-2-(1H-tetrazol-1-yl)phenyl)-2,5-dioxopiperazin-1-yl)-N-(2-methyl-2H-indazol-5-yl)-3-phenylpropanamide]
IC50 [1]: 8.5 nM | CT2 (human plasma): 3.0 µM

Cn1cc2cc(NC(=O)C(Cc3ccccc3)N3CC(=O)N(c4cc(Cl)ccc4-n4cc(C(F)(F)F)nn4)CC3=O)ccc2n1 (stereo not shown) [Example 121, 2-(4-(5-Chloro-2-(4-(trifluoromethyl)-1H-1,2,3-triazol-1-yl)phenyl)-2,5-dioxopiperazin-1-yl)-N-(2-methyl-2H-indazol-5-yl)-3-phenylpropanamide]
IC50 [1]: 32.7 nM | CT2 (human plasma): 16.1 µM

[2H]C([2H])([2H])n1cc2cc(NC(=O)C(Cc3ccc(F)cc3)N3CC(=O)N(c4cc(Cl)ccc4-n4cc(Cl)nn4)CC3=O)ccc2n1 (stereo not shown) [Example 114, 2-(4-(5-chloro-2-(4-chloro-1H-1,2,3-triazol-1-yl)phenyl)-2,5-dioxopiperazin-1-yl)-3-(4-fluorophenyl)-N-(2-(methyl-d3)-2H-indazol-5-yl)propanamide]
IC50 [1]: 48.6 nM | CT2 (human plasma): 14.9 µM
